This experiment deals with T1, protein farnesyltransferase (Rattus norvegicus, UniProt Q02293+Q04631).
T1 construct: The enzyme is purified according to Reiss, Y., et al., Cell, 62: 81-88 (1990), utilizing steps one through three; from tissue; host or cells: rat brain
Description: Inhibition of farnesyltransferase (scintillation proximity assay, rat brain enzyme, biotin-K Ras B fragment substrate). To be noted: 1 × 10^-6 M (Table 2); for inhibition at 1 µM: read-out: % inhibition of farnesyltransferase at 1 × 10^-6 M. It is filed as biochemical. The source says: The ability of the compounds of the invention to inhibit protein farnesyltransferase or protein geranylgeranyltransferase can be measured according to the method of Moores, et al., J. Biol. Chem. 266: 14603 (1991) or the method of Vogt, et al., J. Biol. Chem. 270:660-664 (1995). In addition, procedures for determination of the inhibition of farnesylation of the oncogene protein Ras are described by Goldstein, et al., J. Biol. Chem., 266:15575-15578 (1991) and by Singh in U.S. Pat. No. 5,245,061.
In addition, in vitro inhibition of protein farnesyltransferase may be measured by the following procedure. Rat brain protein farnesyltransferase activity is measured using an Amersham Life Science commercial scintillation proximity assay kit and substituting a biotin-K Ras B fragment (biotin-[…]Ble-Met-CO2 H), […] final concentration, for the biotin-lamin substrate provided by Amersham. The enzyme is purified according to Reiss, Y., et al., Cell, 62: 81-88 (1990), utilizing steps one through three.
The % inhibition of protein farnesyltransferase was determined for representative compounds of the invention.

Results on 52 compounds are retold here after patent publication US6221865A, “Inhibitors of protein isoprenyl transferases” (priority 1998, dated 2001).

The term inhibition denotes how much of the control response was suppressed.

Structures can show the parent of a compound that is named as a salt.

T1 sequence (Q02293 whole entry, one chain of several): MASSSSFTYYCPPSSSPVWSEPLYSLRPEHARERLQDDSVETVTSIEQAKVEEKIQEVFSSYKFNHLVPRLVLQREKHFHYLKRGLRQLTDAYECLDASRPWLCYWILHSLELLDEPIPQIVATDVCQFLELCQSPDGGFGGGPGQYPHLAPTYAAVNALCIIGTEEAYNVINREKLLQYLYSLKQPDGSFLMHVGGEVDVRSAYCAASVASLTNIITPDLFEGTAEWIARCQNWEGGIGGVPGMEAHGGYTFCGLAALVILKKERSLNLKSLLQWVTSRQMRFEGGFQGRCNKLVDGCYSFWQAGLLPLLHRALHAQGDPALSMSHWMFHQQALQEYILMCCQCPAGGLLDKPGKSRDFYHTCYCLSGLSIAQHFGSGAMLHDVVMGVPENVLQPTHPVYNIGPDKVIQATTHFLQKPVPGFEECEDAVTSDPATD

On to `CSCC[C@H](NC(=O)c1ccc(C=CCc2ccccc2)cc1-c1ccccc1C)C(=O)O` (mixture of isomers) [Example 469, N-[4-(3-phenylprop-1-enyl)-2-(2-methylphenyl)benzoyl]methionine (1:1 mixture of olefin isomers)], for which the inhibition at 1 µM was determined as 92%.

As for `CSCC[C@H](NC(=O)c1ccc(C=CCc2ccc3ccccc3c2)cc1-c1ccccc1C)C(=O)O` (mixture of isomers) [Example 496, N-[4-(3-naphth-2-ylprop-1-enyl)-2-(2-methylphenyl)benzoyl]methionine lithium salt (1:1 mixture of olefin isomers)], the inhibition at 1 µM is 93%.

In the case of `CSCCC(NC(=O)c1ccc(NC(=O)Cc2cscn2)cc1-c1ccccc1)C(=O)O` (stereo not shown) [Example 162], the “% inhibition of farnesyltransferase at 1 × 10^-6 M” value (“% inhibition of farnesyltransferase” below) was determined as 12%.

As to `CSCC[C@H](NC(=O)c1ccc(NC(=O)Cc2nccs2)cc1-c1ccccc1)C(=O)O` [Example 163], the “% inhibition of farnesyltransferase” value is 18%.

Turning to `COC(=O)[C@H](CCSC)NC(=O)c1ccc(NC(=O)[C@@H]2CSCN2)cc1-c1ccccc1.Cl` [Example 164], the “% inhibition of farnesyltransferase” value was determined as 92%.

Take `CSCC[C@H](NC(=O)c1ccc(NC(=O)[C@@H]2CSCN2)cc1-c1ccccc1)C(=O)O` [Example 165]: the “% inhibition of farnesyltransferase” value came to 74%.

Take `CSCC[C@H](NC(=O)c1ccc(NC[C@@H]2CSCN2)cc1-c1ccccc1)C(=O)O.Cl` [Example 166]: the “% inhibition of farnesyltransferase” value is reported as 97%.

In the case of `CSCC[C@H](NC(=O)c1ccc(NC(=O)C2CCC(=O)N2)cc1-c1ccccc1)C(=O)O` (stereo partly shown) [Example 202], the “% inhibition of farnesyltransferase” value worked out at 31%.

Consider `CSCCC(NC(=O)c1ccc(NC(=O)c2cncnc2)cc1-c1ccccc1)C(=O)O` (stereo not shown) [Example 219], for which the “% inhibition of farnesyltransferase” value was 56%.

In the case of `CSCC[C@H](NC(=O)c1ccc(N2CC(=O)NNC2=O)cc1-c1ccccc1)C(=O)O` [Example 224], the inhibition at 1 µM was found to be 41%.

Consider `CSCCC(NC(=O)c1ccc(NC(=O)C2CCCNC2)cc1-c1ccccc1)C(=O)O` (stereo not shown) [Example 231], for which the “% inhibition of farnesyltransferase” value was 50%.

With `CSCC[C@H](NC(=O)c1ccc(COCc2cccs2)cc1-c1ccccc1C)C(=O)[O-].[Li+]` [Example 273], the “% inhibition of farnesyltransferase” value is on record as 96%.

For the compound `CSCC[C@H](NC(=O)c1ccc(COCc2ccsc2)cc1-c1ccccc1C)C(=O)[O-].[Li+]` [Example 274], the “% inhibition of farnesyltransferase” value is given as 94%.

In the case of `CSCC[C@H](NC(=O)c1ccc(NC(=O)C2=C(C(F)(F)F)C=CNC2)cc1-c1ccccc1)C(=O)O` [Example 283], the “% inhibition of farnesyltransferase” value came to 98%.

On to `CSCC[C@H](NC(=O)c1ccc(NCC2CNCCN2)cc1-c1ccccc1)C(=O)O` (stereo partly shown) [Example 286], for which the “% inhibition of farnesyltransferase” value is on record as 84%.

Take `CSCC[C@H](NC(=O)c1ccc(COCC2CCOC2)cc1-c1ccccc1)C(=O)O` (stereo partly shown) [Example 287]: the “% inhibition of farnesyltransferase” value came to 24%.

Turning to `CSCC[C@H](NC(=O)c1ccc(COCC2CCCO2)cc1-c1ccccc1)C(=O)O` (stereo partly shown) [Example 288], the “% inhibition of farnesyltransferase” value was found to be 22%.

For the compound `CSCC[C@H](NC(=O)c1ccc(CN2CCN(C)CC2)cc1-c1ccccc1)C(=O)O` [Example 289, [4-(4-methylpiperazinylmethyl)-2-phenylbenzoyl]methionine], the inhibition at 1 µM was found to be 23%.

For the compound `CSCC[C@H](NC(=O)c1ccc(CN2CCNCC2)cc1-c1ccccc1)C(=O)O` [Example 290, (4-piperazinylmethyl-2-phenylbenzoyl)methionine], the inhibition at 1 µM stood at 74%.

Consider `CSCC[C@H](NC(=O)c1ccc(CN2CCC(O)C2)cc1-c1ccccc1)C(=O)O` (stereo partly shown) [Example 291], for which the inhibition at 1 µM was 23%.

For the compound `CCCCON(CCC1CCCCC1)Cc1ccc(C(=O)N[C@@H](CCS(C)(=O)=O)C(=O)O)c(-c2ccccc2C)c1` [Example 298], the inhibition at 1 µM is 43%.

Consider `CCCCN(C)N(CCC1CCCCC1)Cc1ccc(C(=O)N[C@@H](CCSC)C(=O)O)c(-c2ccccc2C)c1` [Example 299], for which the inhibition at 1 µM is 94%.

With `CCCCN(C)N(CCC1CCCCC1)Cc1ccc(C(=O)N[C@@H](CCS(C)(=O)=O)C(=O)O)c(-c2ccccc2C)c1` [Example 300], the inhibition at 1 µM was determined as 22%.

As for `CSCC[C@H](NC(=O)c1ccc(CN(C)C(CC2CCCCC2)C(=O)N2CCCCC2)cc1-c1ccccc1C)C(=O)O` (stereo partly shown) [Example 301], the inhibition at 1 µM came out at 98%.

Consider `CSCC[C@H](NC(=O)c1ccc(CN(C)C(CC2CCCCC2)C(=O)N2CCOCC2)cc1-c1ccccc1C)C(=O)O` (stereo partly shown) [Example 302], for which the inhibition at 1 µM was found to be 31%.

Turning to `CSCC[C@H](NC(=O)c1ccc(CNC(C)(C)Cc2ccccc2)cc1-c1ccccc1C)C(=O)O` [Example 307], the inhibition at 1 µM came out at 82%.

Take `CSCC[C@H](NC(=O)c1ccc(CNC(C)(C)CC2CCCCC2)cc1-c1ccccc1C)C(=O)O` [Example 308]: the inhibition at 1 µM was found to be 62%.

With `CSCC[C@H](NC(=O)c1ccc(CN(C)C(C)(C)Cc2ccccc2)cc1-c1ccccc1C)C(=O)O` [Example 309], the inhibition at 1 µM is 98%.

For the compound `Cc1ccccc1-c1cc(CNC(C)(C)Cc2ccccc2)ccc1C(=O)N[C@@H](CCS(C)(=O)=O)C(=O)O` [Example 311], the inhibition at 1 µM came out at 97%.

Turning to `Cc1ccccc1-c1cc(CN(C)C(C)(C)Cc2ccccc2)ccc1C(=O)N[C@@H](CCS(C)(=O)=O)C(=O)O` [Example 313], the inhibition at 1 µM came to 94%.

For `Cc1ccccc1-c1cc(CN(C)C(C)(C)CC2CCCCC2)ccc1C(=O)N[C@@H](CCS(C)(=O)=O)C(=O)O` [Example 314], the inhibition at 1 µM was 97%.

Regarding `CSCC[C@H](NC(=O)c1ccc(CN(C2CC2)C(C)(C)Cc2ccccc2)cc1-c1ccccc1C)C(=O)O` [Example 315], the inhibition at 1 µM was found to be 93%.

Regarding `CSCC[C@H](NC(=O)c1ccc(CN(C2CC2)C(C)(C)CC2CCCCC2)cc1-c1ccccc1C)C(=O)O` [Example 316], the inhibition at 1 µM was 63%.

Take `CSCC[C@H](NC(=O)c1ccc(CN(C(C)C)C(C)(C)Cc2ccccc2)cc1-c1ccccc1C)C(=O)O` [Example 317]: the inhibition at 1 µM turned out to be 54%.

Take `CSCC[C@H](NC(=O)c1ccc(CN(C(C)C)C(C)(C)CC2CCCCC2)cc1-c1ccccc1C)C(=O)O` [Example 318]: the inhibition at 1 µM was found to be 98%.

On to `Cc1ccccc1-c1cc(CN(C2CC2)C(C)(C)Cc2ccccc2)ccc1C(=O)N[C@@H](CCS(C)(=O)=O)C(=O)O` [Example 319], for which the inhibition at 1 µM amounted to 98%.

On to `Cc1ccccc1-c1cc(CN(C2CC2)C(C)(C)CC2CCCCC2)ccc1C(=O)N[C@@H](CCS(C)(=O)=O)C(=O)O` [Example 320], for which the inhibition at 1 µM was 93%.

As for `Cc1ccccc1-c1cc(CN(C(C)C)C(C)(C)Cc2ccccc2)ccc1C(=O)N[C@@H](CCS(C)(=O)=O)C(=O)O` [Example 321], the inhibition at 1 µM was 90%.

With `Cc1ccccc1-c1cc(CN(C(C)C)C(C)(C)CC2CCCCC2)ccc1C(=O)N[C@@H](CCS(C)(=O)=O)C(=O)O` [Example 322], the inhibition at 1 µM came out at 98%.

With `CSCC[C@H](NC(=O)c1ccc(CN(C2CC2)C2(Cc3ccccc3)CC2)cc1-c1ccccc1C)C(=O)O` [Example 323], the inhibition at 1 µM was 98%.

As to `CSCC[C@H](NC(=O)c1ccc(CN(C2CC2)C2(CC3CCCCC3)CC2)cc1-c1ccccc1C)C(=O)O` [Example 324], the inhibition at 1 µM came out at 98%.

For the compound `CSCC[C@H](NC(=O)c1ccc(CN(C(C)C)C2(Cc3ccccc3)CC2)cc1-c1ccccc1C)C(=O)O` [Example 325], the inhibition at 1 µM worked out at 99%.

As to `CSCC[C@H](NC(=O)c1ccc(CN(C(C)C)C2(CC3CCCCC3)CC2)cc1-c1ccccc1C)C(=O)O` [Example 326], the inhibition at 1 µM came out at 91%.

Consider `Cc1ccccc1-c1cc(CN(C(C)C)C2(Cc3ccccc3)CC2)ccc1C(=O)N[C@@H](CCS(C)(=O)=O)C(=O)O` [Example 327], for which the inhibition at 1 µM came out at 97%.

Take `CSCC[C@H](NC(=O)c1ccc(CN(C2CC2)C2(Cc3ccccc3)CCC2)cc1-c1ccccc1C)C(=O)O` [Example 329]: the inhibition at 1 µM was found to be 98%.

With `CSCC[C@H](NC(=O)c1ccc(CN(C2CC2)C2(CC3CCCCC3)CCC2)cc1-c1ccccc1C)C(=O)O` [Example 330], the inhibition at 1 µM worked out at 98%.

Consider `CSCC[C@H](NC(=O)c1ccc(CN(C(C)C)C2(Cc3ccccc3)CCC2)cc1-c1ccccc1C)C(=O)O` [Example 331], for which the inhibition at 1 µM was determined as 98%.

Take `CSCC[C@H](NC(=O)c1ccc(CN(C(C)C)C2(CC3CCCCC3)CCC2)cc1-c1ccccc1C)C(=O)O` [Example 332]: the inhibition at 1 µM amounted to 26%.

`Cc1ccccc1-c1cc(CN(C2CC2)C2(Cc3ccccc3)CCC2)ccc1C(=O)N[C@@H](CCS(C)(=O)=O)C(=O)O` [Example 333]: the inhibition at 1 µM was found to be 99%.

In the case of `Cc1ccccc1-c1cc(CN(C2CC2)C2(CC3CCCCC3)CCC2)ccc1C(=O)N[C@@H](CCS(C)(=O)=O)C(=O)O` [Example 334], the inhibition at 1 µM came out at 93%.

For the compound `CSCC[C@H](NC(=O)c1ccc(CN(C(C)C)C2(Cc3ccccc3)CCCC2)cc1-c1ccccc1C)C(=O)O` [Example 343], the inhibition at 1 µM came out at 72%.

For the compound `CSCC[C@H](NC(=O)c1ccc(CN(C(C)C)C2(CC3CCCCC3)CCCC2)cc1-c1ccccc1C)C(=O)O` [Example 344], the inhibition at 1 µM was found to be 95%.
